Results reported in patent publication US20150073330A1, “ALZHEIMER'S DISEASE TREATMENT WITH MULTIPLE THERAPEUTIC AGENTS DELIVERED TO THE OLFACTORY REGION THROUGH A SPECIAL DELIVERY CATHETER AND IONTOPHORESIS” (Wedge Therapeutics, LLC, priority 2012, published 2015).
“Also recorded” adds a separate entry of the source.

Experiments:
[1] = system: patients with Lyme disease, senile type dementia and early Alzheimer's disease; experiment: 2-4-dinitrophenol in Lyme disease, senile type dementia and early Alzheimer's disease; assay type: in vivo, human; conditions: minuscule dose
Source text: Exactly how production and aggregation of the beta amyloid peptide gives rise to the pathology of AD even now not known. Accumulation of aggregated amyloid fibrils, which are believed to be the toxic form of the protein responsible for disrupting the cell's calcium ion homeostasis, induces programmed cell death (apoptosis). It known that Aβ selectively builds up in the mitochondria in the cells of Alzheimer's-affected brains, and it inhibits certain enzyme functions and the utilization of glucose by neurons (Chen X, Yan S D. 2006. “Mitochondrial Aβ: a potential cause of metabolic dysfunction in Alzheimer's disease”. IUBMB Life 58 (12): 686-94.). […] We had to discontinue the study due to federal restriction on such use that is not FDA approved.

[2] = cited from earlier work
[3] = cutaneous T-cell lymphoma, 300-400 mg per m^2 per day for eight weeks; cited from earlier work
[4] = system: amyloid beta; conditions: mice, cited from earlier work
[5] = system: patients with depression associated with neurodegenerative diseases; experiment: Intranasal ORE ketamine in patients with depression
[6] = in vivo; cited from earlier work
[7] = biological target: T1, TNF-alpha (Homo sapiens, UniProt P01375); conditions: AD patients; cited from earlier work
T1 construct: endogenous in cells; host or cells: AD patients (in vivo)

[8] = biological target: T1, TNF-alpha; experiment: Etanercept administration in AD patients by different routes; assay type: in vivo; conditions: compared to perispinal, epispinal or interspinal routes
Source text: CNS Drugs 2009; 23 (9): 713-725. Richard C. Chou, Michael A. Kane, Shiva Gautam and Sanjay Ghirmire. Tumor Necrosis Factor Inhibition Reduces the Incidence of Alzheimer's disease in Rheumatoid Arthritis Patients. Abstracts of the American College of Rheumatology, Nov. 8, 2010, Atlanta Ga., Presentation No. 640). […] It is transported to the CNS through the CSF, not by direct spread by cervical vertebral venous system as perceived (Shantha T R and Evans J A: Arachnoid Villi in the Spinal Cord, and Their Relationship to Epidural Anesthesia. Anesthesiology 37:543-557, 1972).

[9] = system: patients with impaired cognition, depression, PTSD, stroke, concussion, brain injury; experiment: ORE delivery of insulin alone or combined in impaired cognition, depression, PTSD, stroke, concussion and brain injury; assay type: in vivo, human; conditions: olfactory mucosal delivery; declining memory in the aged, Parkinson's, depression of many causes
Source text: We also provided the home therapy kit with these therapeutic agents and trained them in the method of delivery to ORE, so that they can administer on their own. Some of the patients received hyperbaric oxygen therapy also.

[10] = cited from earlier work; remark: listed apart in the source
[11] = system: adults with AD and amnestic mild cognitive impairment; conditions: cited from earlier work
[12] = system: MCF-7 Human Breast Cancer Cells; conditions: MCF-7 cells; cited from earlier work
[13] = system: students taking the comprehensive examination and test; experiment: ORE insulin in students before the comprehensive examination; assay type: in vivo, human; conditions: 2-4 IU each side of the nose to the ORE, 1-2 hours before the examination, compared to controls
Procedure: In a study of students taking the comprehensive examination and test, we prescribed 2-4 IU insulin instilled on each sides of the nose delivered to the ORE in supine position, 1-2 hours before the examination using our delivery device. […] We are planning an expanded study and to analyze statistically to report its positive significance and its use in public speakers (T. R. Shantha, use of olfactory mucosal insulin to enhance the memory and recall before student examinations, written tests and before presentations in front of audience at meetings. Expanded study-under preparation.).

[14] = system: receptors in the hippocampus and the frontal cortex; conditions: rodent models, intranasal; cited from earlier work

T1 sequence (P01375 77-233 limits assumed): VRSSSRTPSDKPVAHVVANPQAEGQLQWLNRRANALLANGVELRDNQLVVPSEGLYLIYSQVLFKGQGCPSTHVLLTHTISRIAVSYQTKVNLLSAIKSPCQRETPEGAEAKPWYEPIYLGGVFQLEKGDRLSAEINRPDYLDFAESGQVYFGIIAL

O=[N+]([O-])c1ccc(O)c([N+](=O)[O-])c1 [2-4-dinitrophenol]
complications [1]: without a single complication | pathological changes, memory and cognition ([1]; unpublished data 2004): reduces these pathological changes and improves the memory and cognition

CNC(=O)Oc1ccc2c(c1)[C@]1(C)CCN(C)[C@@H]1N2C [Physostigmine Salicylate]
pH of aqueous solution ([2]; 0.5% aqueous solution): 5.8 | solubility in water [2]: soluble in water

C=C(c1ccc(C(=O)O)cc1)c1cc2c(cc1C)C(C)(C)CCC2(C)C [bexarotene]
adverse effects of high dose usage [3]: hypertriglyceridemia, hypercholesterolemia and decreased high-density lipoprotein levels, as well as hypothyroidism | ability to sense and respond to odors ([4]; after bexarotene treatment): improvement in the ability to sense and respond to odors | nest making behavior ([4]; by 72 hours after the bexarotene treatment): began to use paper to make nests

CNC1(c2ccccc2Cl)CCCCC1=O (stereo not shown) [ketamine]
pH of the sterile solution for injection ([2]; equivalent of 50 mg ketamine base per milliliter): 3.5 to 5.5 | depressive condition in early cases ([5]; early cases, especially in dementia): completely ameliorated the depressive condition | depression ([5]; intranasal delivery to the olfactory mucosa, neurodegenerative diseases, cancer, senility, Lyme disease and others): reduced or relieved the depression | hallucinogenic or other ill effect ([5]; micro doses, 500 micrograms through the ORE): no hallucinogenic or other ill effect; also recorded: no hallucinogenic effect | crossing of the blood brain barrier [6]: easily crosses the BBB

N[C@@H](Cc1ccc(O)c(O)c1)C(=O)O [levodopa]
share that crosses BBB [6]: 5-10%

CNC(=O)Oc1ccc2c(c1)[C@]1(C)CCN(C)[C@@H]1N2C [physostigmine]
crossing of the blood brain barrier [6]: can cross the blood-brain barrier

Etanercept
cognitive abilities after perispinal administration [7]: improve the cognitive abilities of AD patients | effectiveness of cervical epidural and intranasal ORE delivery [8]: much more effective

insulin
depression, memory and cognition [9]: reduced the depression, improved the memory, and increased cognition | time to increased insulin levels in cerebrospinal fluid (CSF) ([10]; human studies, olfactory mucosal intranasal): ≤ 60 min | effect on blood glucose ([10]; normal adults and patients with Alzheimer's disease): without altering blood glucose | story recall and functional status ([11]; 3-week daily intranasal insulin, adults with AD and aMCI): improved delayed story recall and caregiver-rated functional status | memory, attention and functioning ([11]; 21 days olfactory mucosal insulin, early stage AD or mild cognitive impairment, vs placebo): enhanced memory, attention, and functioning compared with placebo | enhancement of the activity of methotrexate [12]: 10,000 times | recall from memory during the test [13]: better and more rapid recall from memory | test scores [13]: scored higher in test scores | time to binding to receptors in the hippocampus and the frontal cortex [14]: ≤ 60 min
